According to US11795171B2, “Pyrrolotriazinones and imidazotriazinones as ubiquitin-specific protease 7 inhibitors” (Valo Health, Inc., priority 2014, dated 2023):

Each compound was assayed against T1, USP7 (Homo sapiens (Human), UniProt Q93009) (assay: USP7 Assay B (Ubitquin-Rhodamine110 Assay)). Conditions: Ub-Rh110 substrate 25 nM.
T1 sequence (Q93009 208-1102): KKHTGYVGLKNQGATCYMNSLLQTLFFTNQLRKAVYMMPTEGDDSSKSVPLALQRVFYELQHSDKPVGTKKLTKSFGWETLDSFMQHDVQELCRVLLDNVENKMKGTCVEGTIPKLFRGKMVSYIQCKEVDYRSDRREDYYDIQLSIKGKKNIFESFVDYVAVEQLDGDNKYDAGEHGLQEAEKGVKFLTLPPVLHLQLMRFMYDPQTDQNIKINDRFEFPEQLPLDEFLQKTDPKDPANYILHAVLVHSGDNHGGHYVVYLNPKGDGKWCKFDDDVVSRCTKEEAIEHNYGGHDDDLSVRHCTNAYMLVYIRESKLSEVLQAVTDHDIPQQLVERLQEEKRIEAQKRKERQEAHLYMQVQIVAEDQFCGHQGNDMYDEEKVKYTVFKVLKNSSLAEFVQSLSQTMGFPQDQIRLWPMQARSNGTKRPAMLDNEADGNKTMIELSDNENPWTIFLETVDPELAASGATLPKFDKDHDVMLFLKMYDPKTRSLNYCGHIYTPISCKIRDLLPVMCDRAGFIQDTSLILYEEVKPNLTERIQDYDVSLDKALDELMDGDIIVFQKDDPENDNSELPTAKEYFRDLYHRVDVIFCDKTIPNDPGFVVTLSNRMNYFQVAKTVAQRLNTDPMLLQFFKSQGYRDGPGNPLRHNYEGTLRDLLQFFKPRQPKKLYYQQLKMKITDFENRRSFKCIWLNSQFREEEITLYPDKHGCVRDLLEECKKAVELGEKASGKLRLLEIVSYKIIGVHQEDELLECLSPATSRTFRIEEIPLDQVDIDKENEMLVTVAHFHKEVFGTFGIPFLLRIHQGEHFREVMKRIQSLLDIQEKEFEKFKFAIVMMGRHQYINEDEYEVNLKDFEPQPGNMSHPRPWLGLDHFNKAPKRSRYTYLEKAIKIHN
Format: biochemical
Compound CCNC(=O)c1ccc(-c2ccc(C(=O)N3CCC(O)(Cn4cnn5cccc5c4=O)CC3)cc2)cc1 [Compound I-41, N-ethyl-4′-(4-hydroxy-4-((4-oxopyrrolo[2,1-f][1,2,4]triazin-3(4H)-yl)methyl)piperidine-1-carbonyl)-[1,1′-biphenyl]-4-carboxamide] has an IC50 of over 10 µM.
Work on Cc1cccc(NC(=O)Nc2cc3c(=O)n(CC4(O)CCN(C(=O)C5CC5)CC4)cnn3c2)c1C [Compound I-98, 1-(3-((1-(cyclopropanecarbonyl)-4-hydroxypiperidin-4-yl)methyl)-4-oxo-3,4-dihydropyrrolo[2,1-f][1,2,4]triazin-6-yl)-3-(2,3-dimethylphenyl)urea] yielded an IC50 of over 10 µM.
Compound Cc1ccc(NC(=O)Nc2cc3c(=O)n(CC4(O)CCN(C(=O)C5CC5)CC4)cnn3c2)c(C)c1 [Compound I-99, 1-(3-((1-(cyclopropanecarbonyl)-4-hydroxypiperidin-4-yl)methyl)-4-oxo-3,4-dihydropyrrolo[2,1-f][1,2,4]triazin-6-yl)-3-(2,4-dimethylphenyl)urea] has an IC50 of over 10 µM.
With O=C(c1ccc(-c2ccccc2)cc1Cl)N1CCC(O)(Cn2cnn3cccc3c2=O)CC1 [Compound I-50, 3-((1-(3-chloro-[1,1′-biphenyl]-4-carbonyl)-4-hydroxypiperidin-4-yl)methyl)pyrrolo[2,1-f][1,2,4]triazin-4(3H)-one] the IC50 was over 10 µM.
O=C(COc1cccc(Cl)c1Cl)Nc1cc2c(=O)n(CC3(O)CCN(C(=O)C4CC4)CC3)cnn2c1 [Compound I-106, N-(3-((1-(cyclopropanecarbonyl)-4-hydroxypiperidin-4-yl)methyl)-4-oxo-3,4-dihydropyrrolo[2,1-f][1,2,4]triazin-6-yl)-2-(2,3-dichlorophenoxy)acetamide] was tested, and the IC50 was 1 to 10 µM.

Each compound was assayed against T1, USP7 (assay: USP7 Assay A (Ubitquin-Rhodamine110 Assay)). Conditions: Ub-Rh110 substrate 25 nM.
Format: biochemical
Protocol: Each assay was performed in a final volume of 15 μL in assay buffer containing 20 mM Tris-HCl (pH 8.0, (1M Tris-HCl, pH 8.0 solution; Corning 46-031-CM)), 1 mM GSH (L-Glutathione reduced: Sigma #G4251), 0.03% BGG ([…], Sigma, #G7516-25G), and 0.01% Triton X-100 (Sigma, #T9284-10L). Nanoliter quantities of either an 8-point or 10-point, 3-fold serial dilution in DMSO was pre-dispensed into assay plates (Perkin Elmer, ProxiPlate-384 F Plus, #6008269) for a final test concentration range of either 25 μM to 11 nM or 25 μM to 1.3 nM, respectively. The final concentration of the enzyme (USP7, construct USP7 (208-1102) 6*His, Viva Biotech) in the assay was […]. […] 5 μL of 2× enzyme was added to assay plates (pre-stamped with compound) preincubated with USP7 for 30 minutes and then 5 μL of 2×Ub-Rh110 was added to assay plates. Plates were incubated stacked for 20 minutes at room temperature before 5 μL of stop solution (final concentration of 10 mM citric acid in assay buffer (Sigma, #251275-500G)). Fluorescence was read on the Envision (Excitation at 485 nm and Emission at 535 nm; Perkin Elmer) or on the PheraSTAR (Excitation at 485 nm and Emission at 535 nm; BMG Labtech).
Data from USP7 Assays A and B were reported as percent inhibition (inh) compared with control wells based on the following equation: % inh=1−((FLU−AveLow)/(AveHigh−AveLow)) where FLU=measured Fluorescence (See Tables 2 and 3). AveLow=average Fluorescence of no enzyme control (n=16). AveHigh=average Fluorescence of DMSO control (n=16). IC50 values were determined by curve fitting of the standard 4 parameter logistic fitting algorithm included in the Activity Base software package: IDBS XE Designer Model205. Data is fitted using the Levenburg Marquardt algorithm. IC50 data from USP7 Assays A and B for the compounds of the invention can be found in Tables 2 and 3.
For O=C(c1ccc(-n2cccn2)cc1)N1CCC(O)(Cn2cnn3c(-c4ccc(F)cc4)ncc3c2=O)CC1 [Compound I-123, 3-((1-(4-(1H-pyrazol-1-yl)benzoyl)-4-hydroxypiperidin-4-yl)methyl)-7-(4-fluorophenyl)imidazo[5,1-f][1,2,4]triazin-4(3H)-one], the IC50 was 1 to 10 µM.
Cc1ccc(-c2ncc3c(=O)n(CC4(O)CCN(C(=O)c5ccc(F)cc5)CC4)cnn23)cc1 [Compound I-117, 3-((1-(4-fluorobenzoyl)-4-hydroxypiperidin-4-yl)methyl)-7-p-tolylimidazo[1,5-f][1,2,4]triazin-4(3H)-one] gave an IC50 of 1 to 10 µM.
With Cc1ccc(-c2ncc3c(=O)n(CC4(O)CCN(C(=O)C[C@H](C)n5cccn5)CC4)cnn23)cc1 [Compound I-120, (S)-3-((1-(3-(1H-pyrazol-1-yl)butanoyl)-4-hydroxypiperidin-4-yl)methyl)-7-(p-tolyl)imidazo[5,1-f][1,2,4]triazin-4(3H)-one] the IC50 was 1 to 10 µM.
With Cc1ccc(C(=O)N2CCC(O)(Cn3cnn4c(-c5ccc(F)cc5)ncc4c3=O)CC2)cc1 [Compound I-124, 7-(4-fluorophenyl)-3-((4-hydroxy-1-(4-methylbenzoyl)piperidin-4-yl)methyl)imidazo[5,1-f][1,2,4]triazin-4(3H)-one] the IC50 was over 10 µM.
For O=C(c1ccc(F)cc1)N1CCC(O)(Cn2cnn3c(-c4ccc(F)cc4)ncc3c2=O)CC1 [Compound I-116, 3-((1-(4-fluorobenzoyl)-4-hydroxypiperidin-4-yl)methyl)-7-(4-fluorophenyl)imidazo[5,1-f][1,2,4]triazin-4(3H)-one], the IC50 was over 10 µM.
O=C(c1cnc(C2CC2)o1)N1CCC(O)(Cn2cnn3c(-c4ccc(F)cc4)ncc3c2=O)CC1 [Compound I-122, 3-((1-(2-cyclopropyloxazole-5-carbonyl)-4-hydroxypiperidin-4-yl)methyl)-7-(4-fluorophenyl)imidazo[5,1-f][1,2,4]triazin-4(3H)-one] gave an IC50 of 1 to 10 µM.
For Cc1ccc(-c2ncc3c(=O)n(CC4(O)CCN(C(=O)C[C@@H](C)n5cccn5)CC4)cnn23)cc1 [Compound I-121, (R)-3-((1-(3-(1H-pyrazol-1-yl)butanoyl)-4-hydroxypiperidin-4-yl)methyl)-7-(p-tolyl)imidazo[5,1-f][1,2,4]triazin-4(3H)-one], the IC50 was over 10 µM.
Cc1ccc(-c2ncc3c(=O)n(CC4(O)CCN(C(=O)CC(C)n5cccn5)CC4)cnn23)cc1 (racemic) [Compound I-119, 3-([4-Hydroxy-1-[3-(1H-pyrazol-1-yl)butanoyl]piperidin-4-yl]methyl)-7-(4-methylphenyl)-3H,4H-imidazo[4,3-f][1,2,4]triazin-4-one] showed an IC50 of 1 to 10 µM.
For Cc1ccc(C(=O)N2CCC(O)(Cn3cnn4c(-c5ccc(F)cc5)ncc4c3=O)CC2)cc1F [Compound I-125, 3-((1-(3-fluoro-4-methylbenzoyl)-4-hydroxypiperidin-4-yl)methyl)-7-(4-fluorophenyl)imidazo[5,1-f][1,2,4]triazin-4(3H)-one], the IC50 was over 10 µM.
